{"source": "paper PMC7938888", "about": "“Antidepressant drugs act by directly binding to TRKB neurotrophin receptors” (Cell, 2021)", "key": {"[1]": {"test_system": "GluR1 subunit of AMPA receptors", "experiment": "Surface GluR1 ELISA in rat cortical cells", "format": "cell-based", "settings": "TRKB inhibitors", "protocol": "Briefly, the MG87.TRKB cells or primary cortical cells from rat or mouse embryos, cultivated in clear bottom 96-well plates (ViewPlate 96, Perkin Elmer), were washed with ice-cold PBS and fixed with 100μl of 4% PFA per well. […] Following washing, the samples were incubated with HRP-conjugated anti-goat or anti-rabbit IgG (1:5000 in blocking buffer) for 1h at RT. The cells were washed 4x with 200μl of PBS for 10 min each. Finally, the chemiluminescent signal generated by reaction with ECL was analyzed in a plate reader."}, "TRKB": {"biological_target": "TRKB (Mus musculus, UniProt P15209)", "sequence (P15209 32-821)": "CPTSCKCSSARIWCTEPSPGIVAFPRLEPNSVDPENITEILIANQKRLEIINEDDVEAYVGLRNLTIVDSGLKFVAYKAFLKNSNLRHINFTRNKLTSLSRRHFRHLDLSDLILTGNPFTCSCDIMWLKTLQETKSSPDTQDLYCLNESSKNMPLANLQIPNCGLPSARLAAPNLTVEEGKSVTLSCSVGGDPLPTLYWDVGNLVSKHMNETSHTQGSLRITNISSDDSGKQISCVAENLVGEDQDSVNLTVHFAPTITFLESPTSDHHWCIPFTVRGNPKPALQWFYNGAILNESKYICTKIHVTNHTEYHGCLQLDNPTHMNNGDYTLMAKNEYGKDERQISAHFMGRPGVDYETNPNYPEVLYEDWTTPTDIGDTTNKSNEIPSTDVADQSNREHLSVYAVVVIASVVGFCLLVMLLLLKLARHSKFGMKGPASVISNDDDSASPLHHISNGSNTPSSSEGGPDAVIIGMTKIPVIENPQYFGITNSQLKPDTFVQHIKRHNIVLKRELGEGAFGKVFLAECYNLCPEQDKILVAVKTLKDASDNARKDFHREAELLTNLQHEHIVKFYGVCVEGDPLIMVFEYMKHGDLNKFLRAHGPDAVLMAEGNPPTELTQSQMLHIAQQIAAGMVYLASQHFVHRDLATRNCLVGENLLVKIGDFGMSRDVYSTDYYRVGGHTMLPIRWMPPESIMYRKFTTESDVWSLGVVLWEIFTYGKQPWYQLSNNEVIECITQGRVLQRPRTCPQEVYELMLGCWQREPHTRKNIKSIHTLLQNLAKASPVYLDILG", "experiment": "Cell-free ligand binding assay on immobilised TRKB from HEK293T lysates", "parameters": "wild-type GFP-tagged full length TRKB or the GFP-tagged Y433F TRKB mutant; host or cells: HEK293T", "settings": "for displacement of biotinylated FLX from TRKB: biotinylated FLX 1 μM", "protocol": "(§1) The cell-free assays (binding assays) were performed in white 96-well plates, based on the protocol used for western-blotting or ELISA ([Baeza-Raja et al., 2016]; [Das et al., 2015]). The plates were precoated with anti-GFP, anti-FLAG, anti-TRK or anti-TRKB antibody (1:1000) in carbonate buffer (pH 9.8), ON at 4°C. Following blocking with 3% BSA in PBS buffer (2 h at RT), 120 ug of total protein from each sample (of lysates from HEK293T cells transfected to overexpress GFP-TRKB.wt or GFP-TRKB.Y433F) were added and incubated overnight at 4°C under agitation. […] The luminescence was determined via HRP-conjugated streptavidin (1:10000, 1h, RT) activity reaction with ECL by a plate reader. The luminescence signal from blank wells (containing all the reagents but the sample lystates, substituted by the blocking buffer) was used as background. The specific signal was then calculated by subtracting the values of blank wells from the values of the samples with matched concentration of the biotinylated ligand. For Figure 2E, the precipitated TRKB.wt or Y433F was incubated with tritiated imipramine (0-30μM) and the radioactive emission of the ligand was determined by scintillation (OptiPhase Supermix cocktail: #1200-439; MicroBeta2, Perkin-Elmer). The scintillation signal from blank wells was used as background, and the specific signal was then calculated by subtracting the values of blank wells from the values of the samples with matched concentration of the radioactive ligand."}, "[2]": {"test_system": "TRKB autophosphorylation (TRKB:pY)", "experiment": "TRKB:pY ELISA in cultured cortical cells", "format": "cell-based, rat", "settings": "for rescue of BDNF-induced pTRKB response under high CHOL: cholesterol 50 μM, drug 10 μM 15 min, BDNF 10 ng/ml 15 min", "protocol": "(§2) The TRKB:pY (phosphorylated TRKB), TRKB:PLC-γ1, PLC-γ1:pTRKB.Y816 interactions and were determined by ELISA, based on the general method described in literature ([Antila et al., 2014]; [Fred et al., 2019]), with minor adjustments. Briefly, white 96-well plates (OptiPlate 96F-HB, Perkin Elmer) were coated with capturing anti-TRKB or PLC-γ1 antibody (1:1000) in carbonate buffer (pH = 9.8) overnight (ON) at 4°C. Following a blocking step with 2%BSA in TBS-T (2 h, RT), samples were incubated ON at 4°C. The incubation with antibody against pTRKB.Y816, PLC-γ1 or pY (1:2000, ON, 4°C) was followed by HRP-conjugated anti-Rb IgG (1:5000, 2h, RT) or HRP-conjugated streptavidin (1:10000, 2h, RT). Finally, the chemiluminescent signal generated by the reaction with ECL was analyzed in a plate reader (Varioskan Flash, Thermo Scientific)."}, "TRKB.Y433F": {"biological_target": "T1, TRKB.Y433F (Mus musculus, UniProt P15209, Y433F)", "T1 construct": "wild-type GFP-tagged full length TRKB or the GFP-tagged Y433F TRKB mutant; host or cells: HEK293T", "T1 sequence (P15209 32-821 Y433F)": "as the sequence (P15209 32-821) above, with Y402F counted along it", "experiment": "Cell-free ligand binding assay, TRKB.Y433F mutant", "settings": "tritiated imipramine, biotinylated R,R-HNK", "protocol": "as §1"}, "TRKB:PLC-γ1 interaction [3]": {"test_system": "TRKB:PLC-γ1 interaction", "experiment": "TRKB:PLC-γ1 interaction ELISA in cortical cells", "format": "cell-based, rat", "protocol": "as §2"}, "TRKB:PLC-γ1 interaction [4]": {"test_system": "TRKB:PLC-γ1 interaction", "experiment": "TRKB:PLC-γ1 interaction ELISA in MG87 cells expressing TRKB", "format": "cell-based, mouse", "settings": "bCDX 2 mM/30 min pre-treatment", "protocol": "The cell line NIH 3T3 (mouse fibroblasts) stably transfected to express TRKB or TRKA (MG87.TRKB or MG87.TRKA, respectively) were used for in vitro assays ([Antila et al., 2014]), N2A and HEK293T cells were used to overexpress GFP-tagged TRKB for binding assays. The cells were maintained at 5% CO2, 37°C in Dulbecco’s Modified Eagle’s Medium (DMEM, containing 10% fetal calf serum, 1% penicillin/streptomycin, 1% L-glutamine, and, in the case of MG87.TRKB cells, with […] of G418). The cell lines used in the present study were not authenticated or genotyped for sex.\nas §2, with “The incubation with antibody against pTRKB.Y816, PLC-γ1 or pY (1:2000, ON, 4°C) was followed by HRP-conjugated anti-Rb IgG (1:5000, 2h, RT) or HRP-conjugated streptavidin (1:10000, 2h, RT).” left out"}, "surface TRKB": {"test_system": "surface TRKB", "experiment": "Surface TRKB ELISA in primary cortical neurons", "format": "cell-based, rat", "protocol": "The surface levels of TRKB were also determined by ELISA ([Zheng et al., 2008]). Briefly, the MG87.TRKB cells or primary cortical cells from rat or mouse embryos, cultivated in clear bottom 96-well plates (ViewPlate 96, Perkin Elmer), were washed with ice-cold PBS and fixed with 100μl of 4% PFA per well. After washing with PBS and blocking with PBS containing 5% nonfat dry milk and 5% BSA, the samples were incubated with primary anti-TRKB antibody (R&D Systems, #AF1494, 1:1000 in blocking buffer) or anti-GluR1 subunit of AMPA receptors (CST, #8850, 1:2000 in blocking buffer) ON at 4°C. Following washing, the samples were incubated with HRP-conjugated anti-goat or anti-rabbit IgG (1:5000 in blocking buffer) for 1h at RT. The cells were washed 4x with 200μl of PBS for 10 min each. Finally, the chemiluminescent signal generated by reaction with ECL was analyzed in a plate reader."}, "[5]": {"biological_target": "GFP-tagged TRKB mutated at Y433 (GFP-TRKB.Y433F) (UniProt P15209)", "sequence (P15209 32-821 Y433F)": "as the sequence (P15209 32-821) above, with Y402F counted along it", "experiment": "ELISA; cell-free ligand binding assay in white 96-well plates: GFP-TRKB from 120 ug HEK293T lysate captured on antibody-coated wells (anti-GFP or anti-TRKB), washed, ligand added; read-out by HRP-streptavidin and ECL as told for biotinylated ligands; the conditions for BDNF are not told"}, "[6]": {"biological_target": "GFP-tagged TRKB wild type (GFP-TRKB.wt), neurotrophic tyrosine kinase receptor 2 (UniProt P15209)", "sequence (P15209 32-821)": "as the sequence (P15209 32-821) above", "experiment": "ELISA; cell-free ligand binding assay in white 96-well plates: GFP-TRKB from 120 ug HEK293T lysate captured on antibody-coated wells (anti-GFP or anti-TRKB), washed, ligand added; read-out by HRP-streptavidin and ECL as told for biotinylated ligands; the conditions for BDNF are not told"}}, "note": "Entries after “also recorded” stand apart in the source; their conditions may differ.", "data": [{"compound": "O=C(Nc1ccccc1C(=O)NC1CCCCNC1=O)c1cc2ccccc2s1", "note": "(stereo not drawn) [ANA12]", "values": [{"measurement": "effect on FLX- and R,R-HNK-induced increase in surface GluR1", "setting": "[1]", "value": "prevented"}]}, {"compound": "N[C@]1(c2ccccc2Cl)CCC[C@H](O)C1=O", "note": "[S,S-HNK, 2S,6S-HNK]", "values": [{"measurement": "displacement of biotinylated FLX from TRKB", "setting": "TRKB", "value": "weak, if any, displacement"}, {"measurement": "displacement of bound R,R-HNK from TRKB", "setting": "TRKB; biotinylated R,R-HNK 1 μM", "value": "failed to displace"}]}, {"compound": "CN(C)CCCN1c2ccccc2Sc2ccc(Cl)cc21", "note": "[chlorpromazine]", "values": [{"measurement": "rescue of BDNF-induced pTRKB response under high CHOL", "setting": "[2]", "value": "failed to rescue"}, {"measurement": "displacement of biotinylated FLX from TRKB", "setting": "TRKB", "value": "weak, if any, displacement; also recorded: failed to displace"}]}, {"compound": "CN(C)CCOC(c1ccccc1)c1ccccc1", "note": "[diphenhydramine]", "values": [{"measurement": "displacement of biotinylated FLX from TRKB", "setting": "TRKB", "value": "weak, if any, displacement"}]}, {"compound": "CN[C@]1(c2ccccc2Cl)CCCCC1=O", "note": "[esketamine, S-ketamine]", "values": [{"measurement": "Ki", "setting": "TRKB", "value": 2860, "unit": "nM"}]}, {"compound": "OCCN1CCN(CCC=C2c3ccccc3Sc3ccc(C(F)(F)F)cc32)CC1", "note": "[flupenthixol]", "values": [{"measurement": "rescue of BDNF-induced pTRKB response under high CHOL", "setting": "[2]", "value": "failed to rescue"}]}, {"compound": "CN(C)CCCN1c2ccccc2CCc2ccccc21", "note": "[imipramine]", "values": [{"measurement": "affinity to TRKB.Y433F compared with wild-type TRKB", "setting": "TRKB.Y433F", "value": "much lower than to the wild-type TRKB"}, {"measurement": "TRKB interaction with PLC-γ1", "setting": "TRKB:PLC-γ1 interaction [3]; rat cortical cells", "value": "increased TRKB interaction with PLC-γ1"}, {"measurement": "Ki", "setting": "TRKB", "value": 1030, "unit": "nM"}]}, {"compound": "CC(C)NCC(O)c1ccc(O)c(O)c1", "note": "(stereo not drawn) [isoproterenol]", "values": [{"measurement": "displacement of biotinylated FLX from TRKB", "setting": "TRKB", "value": "weak, if any, displacement"}]}, {"compound": "COC(=O)[C@@]1(O)C[C@H]2O[C@]1(C)n1c3ccccc3c3c4c(c5c6ccccc6n2c5c31)C(=O)NC4", "note": "[k252a]", "values": [{"measurement": "effect on FLX- and R,R-HNK-induced increase in surface GluR1", "setting": "[1]", "value": "prevented"}]}, {"compound": "O=C(NCCN1CCOCC1)c1ccc(Cl)cc1", "note": "[moclobemide]", "values": [{"measurement": "Ki", "setting": "TRKB", "value": 1510, "unit": "nM"}]}, {"compound": "O=c1[nH]c2ccccc2n1C1CCN(CCCC(c2ccc(F)cc2)c2ccc(F)cc2)CC1", "note": "[pimozide]", "values": [{"measurement": "rescue of BDNF-induced pTRKB response under high CHOL", "setting": "[2]", "value": "failed to rescue"}]}, {"compound": "COc1ccc(C(CN(C)C)C2(O)CCCCC2)cc1", "note": "(stereo not drawn) [venlafaxine]", "values": [{"measurement": "Ki", "setting": "TRKB", "value": 2080, "unit": "nM"}, {"measurement": "displacement of biotinylated FLX from TRKB", "setting": "TRKB", "value": "readily displaced"}]}, {"compound": "OC[C@H]1O[C@@H]2O[C@H]3[C@H](O)[C@@H](O)[C@@H](O[C@H]4[C@H](O)[C@@H](O)[C@@H](O[C@H]5[C@H](O)[C@@H](O)[C@@H](O[C@H]6[C@H](O)[C@@H](O)[C@@H](O[C@H]7[C@H](O)[C@@H](O)[C@@H](O[C@H]8[C@H](O)[C@@H](O)[C@@H](O[C@H]1[C@H](O)[C@H]2O)O[C@@H]8CO)O[C@@H]7CO)O[C@@H]6CO)O[C@@H]5CO)O[C@@H]4CO)O[C@@H]3CO", "note": "[βCDX, beta-cyclodextrin]", "values": [{"measurement": "effect on block of BDNF-induced pTRKB by high cholesterol", "setting": "[2]; bCDX 30 min, cholesterol 100 μM/15 min, BDNF 10 ng/ml/15 min", "value": "reverses the block"}, {"measurement": "effect on BDNF-induced increase in TRKB-PLC-γ1 interaction", "setting": "TRKB:PLC-γ1 interaction [3]; bCDX 2 mM, 30 min", "value": "prevents"}, {"measurement": "effect on antidepressant-induced TRKB:PLC-γ1 interaction", "setting": "TRKB:PLC-γ1 interaction [3]; bCDX 2 mM/30 min pretreatment, FLX, imipramine, KET, R,R-HNK", "value": "blocked"}, {"measurement": "blockade of CHOL effect on TRKB:PLC-γ1 interaction", "setting": "TRKB:PLC-γ1 interaction [4]", "value": "blocked"}, {"measurement": "effect on fluoxetine-induced increase in TRKB surface exposure", "setting": "surface TRKB", "value": "blocked"}]}, {"compound": "brain-derived neurotrophic factor (BDNF), biotinylated rh-BDNF (ligand)", "values": [{"measurement": "Kd", "setting": "[5]", "value": 0.0029, "unit": "nM"}, {"measurement": "Kd", "setting": "[6]", "value": 0.0031, "unit": "nM"}]}]}
